Reference: patent US20060112494A1, “Method of protecting an animal skin product from metalloproteinase activity” (priority 2004, published 2006)
Where two headings read alike, the source gives them in different places.

Assays:
Aeromonas salmonicida = system: Aeromonas salmonicida; set-up: key to the marks not given beside the values; conditions: for Growth/Days 1: day 1; for Growth/Days 2: day 2; for Growth/Days 7: day 7
Experimental: (§1) Nutrient agar amended with Azocoll (a substrate made up of insoluble particles of collagen impregnated with a bright azo dye) was used as the test medium to study collagenase activity. The nutrient agar was prepared and autoclaved and then was cooled to 55° C. Azocol was added to give a final concentration of 0.5%. […] Using a sterile spatula or cork-borer, the middle portion of each plate of about the size of a United States quarter, was scooped out. Fresh nutrient agar-azocoll medium containing no inhibitor was added to replace the scooped out portion of the plate. […] The bacteria were grown overnight on nutrient agar. A suspension of each culture was made in sterile water and used to inoculate the middle portion of each plate. The treated samples were incubated at 30° C. and evaluated after 24 hours, 2 days and 7 days for collagenase activity and also for the growth of the bacteria. The test cultures secreted collagenase into the medium as they grew to degrade the collagen in the azocoll medium, and collagenase activity was determined by visual inspection of the clear zone around the bacteria. All % are by weight percent of the active ingredient.

collagenase [1] = system: collagenase
collagenase [2] = conditions: for Collagenase Activity/Days 2: day 2; for Collagenase Activity/Days 7: day 7; for Collagenase Activity/Days 1: day 1
Pseudomonas fluorescens = system: Pseudomonas fluorescens
Experimental: as §1

[3] = Conc. 1.8%, column day 1, footnote d: data collected on day 2
[4] = Conc. 1.8%, column day 2, footnote e: data collected on day 3

O=C(O)C[C@H](NCCN[C@@H](CC(=O)O)C(=O)O)C(=O)O [Na3EDDS, S,S′-ethylenediamine disuccinic acid]
Growth/Days 1 (Aeromonas salmonicida; Conc. 0.2%): ++++
Growth/Days 2 (Aeromonas salmonicida; Conc. 0.2%): ++++
Growth/Days 7 (Aeromonas salmonicida; Conc. 0.2%): ++++
Growth/Days 1 (Aeromonas salmonicida; Conc. 0.5%): ++++
Growth/Days 2 (Aeromonas salmonicida; Conc. 0.5%): ++++
Growth/Days 7 (Aeromonas salmonicida; Conc. 0.5%): ++++
Growth/Days 1 (Aeromonas salmonicida; Conc. 0.7%): ++++
Growth/Days 2 (Aeromonas salmonicida; Conc. 0.7%): ++++
Growth/Days 7 (Aeromonas salmonicida; Conc. 0.7%): ++++
Growth/Days 1 (Aeromonas salmonicida; Conc. 1%): ++++
Growth/Days 2 (Aeromonas salmonicida; Conc. 1%): ++++
Growth/Days 7 (Aeromonas salmonicida; Conc. 1%): ++++
Growth/Days 1 (Aeromonas salmonicida; Conc. 1.2%): ++++
Growth/Days 2 (Aeromonas salmonicida; Conc. 1.2%): ++++
Growth/Days 7 (Aeromonas salmonicida; Conc. 1.2%): ++++
Growth/Days 1 (Aeromonas salmonicida; Conc. 1.3%): ++++
Growth/Days 2 (Aeromonas salmonicida; Conc. 1.3%): ++++
Growth/Days 7 (Aeromonas salmonicida; Conc. 1.3%): ++++
Growth/Days 1 (Aeromonas salmonicida; Conc. 1.5%): ++++
Growth/Days 2 (Aeromonas salmonicida; Conc. 1.5%): ++++
Growth/Days 7 (Aeromonas salmonicida; Conc. 1.5%): ++++
Growth/Days 1 (Aeromonas salmonicida; Conc. 1.8%): +++
Growth/Days 2 (Aeromonas salmonicida; Conc. 1.8%): ++++
Growth/Days 7 (Aeromonas salmonicida; Conc. 1.8%): ++++
Growth/Days 1 (Aeromonas salmonicida; Conc. 2%): ++
Growth/Days 2 (Aeromonas salmonicida; Conc. 2%): +++
Growth/Days 7 (Aeromonas salmonicida; Conc. 2%): +++
Collagenase Activity/Days 1 (collagenase [1]; Conc. 0.1%, day 1): ++++
Collagenase Activity/Days 2 (collagenase [1]; Conc. 0.1%, day 2): ++++
Collagenase Activity/Days 7 (collagenase [1]; Conc. 0.1%, day 7): ++++
Collagenase Activity/Days 2 (collagenase [1]; Conc. 0.2%, day 2): ++++
Collagenase Activity/Days 7 (collagenase [1]; Conc. 0.2%, day 7): ++++
Collagenase Activity/Days 1 (collagenase [1]; Conc. 0.3%, day 1): 0
Collagenase Activity/Days 2 (collagenase [1]; Conc. 0.3%, day 2): +++
Collagenase Activity/Days 7 (collagenase [1]; Conc. 0.3%, day 7): ++++
Collagenase Activity/Days 1 (collagenase [1]; Conc. 0.4%, day 1): 0
Collagenase Activity/Days 2 (collagenase [1]; Conc. 0.4%, day 2): ++
Collagenase Activity/Days 7 (collagenase [1]; Conc. 0.4%, day 7): ++++
Collagenase Activity/Days 1 (collagenase [1]; Conc. 0.5%, day 1): 0
Collagenase Activity/Days 7 (collagenase [1]; Conc. 0.5%, day 7): ++++
Collagenase Activity/Days 1 (collagenase [1]; Conc. 0.6%, day 1): 0
Collagenase Activity/Days 2 (collagenase [1]; Conc. 0.6%, day 2): 0
Collagenase Activity/Days 7 (collagenase [1]; Conc. 0.6%, day 7): +
Collagenase Activity/Days 1 (collagenase [1]; Conc. 0.7%, day 1): 0
Collagenase Activity/Days 1 (collagenase [1]; Conc. 0.8%, day 1): 0
Collagenase Activity/Days 2 (collagenase [1]; Conc. 0.8%, day 2): 0
Collagenase Activity/Days 7 (collagenase [1]; Conc. 0.8%, day 7): 0
Collagenase Activity/Days 1 (collagenase [1]; Conc. 0.9%, day 1): 0
Collagenase Activity/Days 2 (collagenase [1]; Conc. 0.9%, day 2): 0
Collagenase Activity/Days 7 (collagenase [1]; Conc. 0.9%, day 7): 0
Collagenase Activity/Days 1 (collagenase [1]; Conc. 1%, day 1): 0
Collagenase Activity/Days 1 (collagenase [1]; Conc. 1.3%, day 1): 0
Collagenase Activity/Days 2 (collagenase [1]; Conc. 1.3%, day 2): 0
Collagenase Activity/Days 1 (collagenase [1]; Conc. 1.5%, day 1): 0
Collagenase Activity/Days 2 (collagenase [1]; Conc. 1.5%, day 2): 0
Collagenase Activity/Days 7 (collagenase [1]; Conc. 1.5%, day 7): 0
Collagenase Activity/Days 1 (collagenase [1]; [3]): 0^d
Collagenase Activity/Days 2 (collagenase [1]; [4]): 0^e
Collagenase Activity/Days 7 (collagenase [1]; Conc. 1.8%, day 7 (footnote f)): 0^f
performance as collagenase inhibitors (summary in words) (collagenase [1]; collagenase produced by the bacteria studied, Table 1): performed very well as collagenase inhibitors
Collagenase Activity/Days 2 (collagenase [2]; Conc. 0.2%): ++++
Collagenase Activity/Days 7 (collagenase [2]; Conc. 0.2%): ++++
Collagenase Activity/Days 1 (collagenase [2]; Conc. 0.5%): 0
Collagenase Activity/Days 7 (collagenase [2]; Conc. 0.5%): ++++
Collagenase Activity/Days 1 (collagenase [2]; Conc. 0.7%): 0
Collagenase Activity/Days 1 (collagenase [2]; Conc. 1%): 0
Collagenase Activity/Days 1 (collagenase [2]; Conc. 1.2%): 0
Collagenase Activity/Days 2 (collagenase [2]; Conc. 1.2%): +
Collagenase Activity/Days 7 (collagenase [2]; Conc. 1.2%): ++++
Collagenase Activity/Days 1 (collagenase [2]; Conc. 1.3%): 0
Collagenase Activity/Days 2 (collagenase [2]; Conc. 1.3%): 0
Collagenase Activity/Days 1 (collagenase [2]; Conc. 1.5%): 0
Collagenase Activity/Days 2 (collagenase [2]; Conc. 1.5%): 0
Collagenase Activity/Days 7 (collagenase [2]; Conc. 1.5%): 0
Collagenase Activity/Days 1 (collagenase [2]; Conc. 1.8%): 0
Collagenase Activity/Days 2 (collagenase [2]; Conc. 1.8%): 0
Collagenase Activity/Days 7 (collagenase [2]; Conc. 1.8%): 0
Collagenase Activity/Days 1 (collagenase [2]; Conc. 2%): 0
Collagenase Activity/Days 2 (collagenase [2]; Conc. 2%): 0
Collagenase Activity/Days 7 (collagenase [2]; Conc. 2%): 0
performance as collagenase inhibitors (summary in words) (collagenase [2]; collagenase produced by the bacteria studied, Table 2): performed very well as collagenase inhibitors
Growth/Days 1 (Pseudomonas fluorescens; Conc. 0.1%, day 1): ++++
Growth/Days 2 (Pseudomonas fluorescens; Conc. 0.1%, day 2): ++++
Growth/Days 7 (Pseudomonas fluorescens; Conc. 0.1%, day 7): ++++
Growth/Days 1 (Pseudomonas fluorescens; Conc. 0.2%, day 1): ++++
Growth/Days 2 (Pseudomonas fluorescens; Conc. 0.2%, day 2): ++++
Growth/Days 7 (Pseudomonas fluorescens; Conc. 0.2%, day 7): ++++
Growth/Days 1 (Pseudomonas fluorescens; Conc. 0.3%, day 1): ++++
Growth/Days 2 (Pseudomonas fluorescens; Conc. 0.3%, day 2): ++++
Growth/Days 7 (Pseudomonas fluorescens; Conc. 0.3%, day 7): ++++
Growth/Days 1 (Pseudomonas fluorescens; Conc. 0.4%, day 1): ++++
Growth/Days 2 (Pseudomonas fluorescens; Conc. 0.4%, day 2): ++++
Growth/Days 7 (Pseudomonas fluorescens; Conc. 0.4%, day 7): ++++
Growth/Days 1 (Pseudomonas fluorescens; Conc. 0.5%, day 1): ++++
Growth/Days 2 (Pseudomonas fluorescens; Conc. 0.5%, day 2): ++++
Growth/Days 7 (Pseudomonas fluorescens; Conc. 0.5%, day 7): ++++
Growth/Days 1 (Pseudomonas fluorescens; Conc. 0.6%, day 1): ++++
Growth/Days 2 (Pseudomonas fluorescens; Conc. 0.6%, day 2): ++++
Growth/Days 7 (Pseudomonas fluorescens; Conc. 0.6%, day 7): ++++
Growth/Days 1 (Pseudomonas fluorescens; Conc. 0.7%, day 1): ++++
Growth/Days 2 (Pseudomonas fluorescens; Conc. 0.7%, day 2): ++++
Growth/Days 7 (Pseudomonas fluorescens; Conc. 0.7%, day 7): ++++
Growth/Days 1 (Pseudomonas fluorescens; Conc. 0.8%, day 1): ++++
Growth/Days 2 (Pseudomonas fluorescens; Conc. 0.8%, day 2): ++++
Growth/Days 7 (Pseudomonas fluorescens; Conc. 0.8%, day 7): ++++
Growth/Days 1 (Pseudomonas fluorescens; Conc. 0.9%, day 1): ++++
Growth/Days 2 (Pseudomonas fluorescens; Conc. 0.9%, day 2): ++++
Growth/Days 7 (Pseudomonas fluorescens; Conc. 0.9%, day 7): ++++
Growth/Days 1 (Pseudomonas fluorescens; Conc. 1%, day 1): ++++
Growth/Days 2 (Pseudomonas fluorescens; Conc. 1%, day 2): ++++
Growth/Days 7 (Pseudomonas fluorescens; Conc. 1%, day 7): ++++
Growth/Days 1 (Pseudomonas fluorescens; Conc. 1.3%, day 1): ++++
Growth/Days 2 (Pseudomonas fluorescens; Conc. 1.3%, day 2): ++++
Growth/Days 7 (Pseudomonas fluorescens; Conc. 1.3%, day 7): ++++
Growth/Days 1 (Pseudomonas fluorescens; Conc. 1.5%, day 1): ++++
Growth/Days 2 (Pseudomonas fluorescens; Conc. 1.5%, day 2): ++++
Growth/Days 7 (Pseudomonas fluorescens; Conc. 1.5%, day 7): ++++
Growth/Days 1 (Pseudomonas fluorescens; [3]): ++++^d
Growth/Days 2 (Pseudomonas fluorescens; [4]): ++++^e
Growth/Days 7 (Pseudomonas fluorescens; Conc. 1.8%, day 7 (footnote f)): ++++^f
